Assay results taken from patent US12472224B2, “Ready-to-use bivalirudin compositions” (MAIA Pharmaceuticals, Inc., priority 2019, dated 2025).

Columns and labels:
[1] = Toxicokinetics of bivalirudin in satellite animals of the rat study (plasma concentrations); conditions: both sexes, Sprague-Dawley, in vivo, iv, 24 hours after termination of dosing, 7 out of 23 samples, all others below 50 ng/mL, read-out: plasma bivalirudin concentration at the 24-hour timepoint
Experimental: The infusion rate was 2.5 mL/kg/h for all groups. A separate set of satellite animals (6/sex/group) were administered the same set of materials and used for evaluating the toxicokinetics (TK) of bivalirudin at 5 minutes and 24 hours after termination of dosing (3 animals/sex/group/timepoint). See Table 16b for group allocation. All animals were sacrificed on Day 16, one day following the end of the 14-day infusion.
Mean plasma concentrations of bivalirudin at C5 were similar in males treated with the high-dose (250 mg/kg/day) of MAIA Bivalirudin Injection or Sandoz Bivalirudin, and only slightly lower (approximately 20% lower) in the female treated with MAIA Bivalirudin than in the females treated with Sandoz Bivalirudin. However, it must be noted that data are available from just one female for the MAIA product, due to premature deaths or inability to collect blood.

Whole human blood = assay: Hemolysis study; format: cell-based
Experimental: Briefly, human whole blood was collected from a single donor (K2EDTA anticoagulant). The donor blood was analyzed for hemoglobin content in triplicate using an Advia 120 hematology analyzer. The dynamic mixing of drug infusate in human whole blood was simulated in this in vitro study by incubating the diluted test, reference and placebo items at a blood:formulation ratio of 1:0.75, corresponding to a final bivalirudin concentration of 2.14 mg/mL. Blood was mixed with either bivalirudin for injection as described herein, Angiomax®, a bivalirudin placebo, or 0.9% saline. The mixture as incubated at 37° C. (±5° C.) for 30 minutes. Negative controls containing only blood (whole blood control) or blood mixed with 0.9% saline at a blood:saline ratio of 1:0.75 (0.9% NaCl control) were also prepared. A positive control containing blood mixed 1:1 with 1% saponin was also prepared. All control tubes were incubated at 37° C. (±5° C.) for 30 minutes. […] During the incubation tubes containing the test and reference item mixed with saline were prepared to check if the test or reference item interfered with the absorbance readings. […] The percent hemolysis of each sample was calculated based on the hemoglobin content of the supernatant, expressed as a percentage of hemoglobin content of the donor sample, after correcting for dilution and interference from the sample, if any.

Compound | level at 24 h [1] [ng/mL] | % Hemolysis (Whole human blood) [%] | % hemolysis (positive control) (Whole human blood) [%]
CC[C@H](C)[C@H](NC(=O)[C@H](CCC(=O)O)NC(=O)[C@H](CCC(=O)O)NC(=O)[C@H](Cc1ccccc1)NC(=O)[C@H](CC(=O)O)NC(=O)CNC(=O)[C@H](CC(N)=O)NC(=O)CNC(=O)CNC(=O)CNC(=O)CNC(=O)[C@@H]1CCCN1C(=O)[C@H](CCCNC(=N)N)NC(=O)[C@@H]1CCCN1C(=O)[C@H](N)Cc1ccccc1)C(=O)N1CCC[C@H]1C(=O)N[C@@H](CCC(=O)O)C(=O)N[C@@H](CCC(=O)O)C(=O)N[C@@H](Cc1ccc(O)cc1)C(=O)N[C@@H](CC(C)C)C(=O)O [bivalirudin] | 50.5 to 159 | – | –
saponin | – | 100.0 ± 0.8 | 100
